Where a SMILES comes first, the peptide text is derived from it. Bridges are numbered along the chain shown (N, C = ends). [ ]: non-standard residue; d: D form. d(aThr) = C[C@@H](O)[C@@H](N)C(=O)O; Dhb = C/C=C(\N)C(=O)O
Target: TRPV1 (Homo sapiens, UniProt Q8NER1)
Test: TRPV1 assays, inhibition of capsaicin response (cell line not stated for the IC50 values)

TRPV1, sequence (Q8NER1 whole entry): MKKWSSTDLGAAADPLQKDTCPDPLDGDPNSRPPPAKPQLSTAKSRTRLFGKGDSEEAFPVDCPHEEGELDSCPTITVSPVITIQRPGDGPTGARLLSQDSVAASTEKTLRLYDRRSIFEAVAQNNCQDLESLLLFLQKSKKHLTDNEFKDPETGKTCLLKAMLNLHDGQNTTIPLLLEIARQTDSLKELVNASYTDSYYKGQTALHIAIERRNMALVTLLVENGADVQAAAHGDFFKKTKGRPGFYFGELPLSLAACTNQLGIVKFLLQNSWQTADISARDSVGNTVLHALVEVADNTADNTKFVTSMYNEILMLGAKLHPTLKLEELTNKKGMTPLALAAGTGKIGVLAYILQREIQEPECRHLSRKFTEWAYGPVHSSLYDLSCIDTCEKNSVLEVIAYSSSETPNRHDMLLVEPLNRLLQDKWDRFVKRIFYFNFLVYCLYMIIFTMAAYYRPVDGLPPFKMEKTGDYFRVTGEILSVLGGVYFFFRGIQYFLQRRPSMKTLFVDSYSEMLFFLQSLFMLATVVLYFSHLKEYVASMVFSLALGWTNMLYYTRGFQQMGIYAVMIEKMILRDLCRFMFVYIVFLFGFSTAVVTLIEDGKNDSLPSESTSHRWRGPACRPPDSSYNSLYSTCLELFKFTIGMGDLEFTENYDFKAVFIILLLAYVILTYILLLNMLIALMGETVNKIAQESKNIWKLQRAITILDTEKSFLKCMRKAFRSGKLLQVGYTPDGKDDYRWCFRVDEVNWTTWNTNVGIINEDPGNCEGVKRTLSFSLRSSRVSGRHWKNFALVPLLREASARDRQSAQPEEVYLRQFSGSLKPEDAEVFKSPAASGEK

Row | Compound | inhibitory activity on TRPV1 (in words)
1 | Nobilamide E [compound 8] | inactive
2 | C/C=C1\NC(=O)[C@H](C)NC(=O)[C@H](C(C)C)NC(=O)[C@H](NC(=O)[C@H](Cc2ccccc2)NC(=O)[C@@H](CC(C)C)NC(=O)[C@@H](Cc2ccccc2)NC(C)=O)[C@@H](C)OC1=O [compound 1, A-3302-B] (Ac-[dF][dL]F[d(aThr)]VA[Dhb]; ester 4-C) | substantial inhibitory activity

Source: patent US20140121168A1, “ANTAGONISTS OF TRPV1 RECEPTOR” (ANTAGONISTS OF TRPV1 RECEPTOR, priority 2011, published 2014)
